Experimental data as given in patent US20180338980A1, “AROMATIC SULFONAMIDE DERIVATIVES” (BAYER PHARMA AKTIENGESELLSCHAFT, priority 2015, published 2018).

What was measured:
P2X4 [1] = target: T1, P2X4 (Homo sapiens, UniProt Q99571); experiment: Assay A: human P2X4 receptor cell line, FLIPR calcium assay (Fluo-8, agonist Bz-ATP at EC80); assay type: cell-based; design: host or cells: HEK 293 (recombinant, constitutively expressing; with mitochondrial photina in Assay B); settings: HEK human P2X4 cells, Fluo-8 FLIPR; for IC50: Bz-ATP at EC80, average values; for Emax: percentage of maximal inhibition, read-out: human P2X4 Assay A avg Efficacy
T1 sequence (Q99571 1-388): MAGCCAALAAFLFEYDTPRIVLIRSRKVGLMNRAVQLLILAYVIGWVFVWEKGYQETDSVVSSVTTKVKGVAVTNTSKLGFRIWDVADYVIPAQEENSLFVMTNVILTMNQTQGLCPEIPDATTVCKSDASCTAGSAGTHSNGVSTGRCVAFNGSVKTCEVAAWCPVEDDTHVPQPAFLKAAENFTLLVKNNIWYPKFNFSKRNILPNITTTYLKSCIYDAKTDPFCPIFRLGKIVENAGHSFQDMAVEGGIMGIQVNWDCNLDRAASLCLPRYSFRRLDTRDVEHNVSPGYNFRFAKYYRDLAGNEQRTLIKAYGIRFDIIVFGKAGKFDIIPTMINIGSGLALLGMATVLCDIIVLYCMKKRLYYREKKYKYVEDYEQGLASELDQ
Procedure, shortened: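 HEK cells expressing human P2X4 (20,000/well, plated ~20 h earlier) loaded 30 min with 5 μM Fluo-8 in HBSS/HEPES buffer with 1.8 mM CaCl2, 1 mM MgCl2, 2 mM probenecid, pH 7.4. Antagonist preincubated 30 min at room temperature (0.5% DMSO), then Bz-ATP at EC80. Peak fluorescence over 120 s, normalized to DMSO; triplicate IC50 and Hill fits.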

P2X4 [2] = target: T1, P2X4; experiment: Assay B: human P2X4 receptor cell line, mitochondrial photina luminescence (agonist Bz-ATP at EC50); assay type: cell-based; design: host or cells: HEK 293 (recombinant, constitutively expressing; with mitochondrial photina in Assay B); settings: HEK human P2X4 cell line, photina luminescence, agonist Bz-ATP at EC50, average; for Emax: read-out: human P2X4 Assay B avg Efficacy
Procedure, shortened: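 Recombinant cell line constitutively expressing human P2X4 and mitochondrial photina photoprotein, reconstituted with coelenterazine. Receptor stimulated with Bz-ATP at EC50; calcium influx read immediately as luminescence.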

Structure (SMILES) | IC50 (P2X4 [1]) [nM] | Emax (P2X4 [1]) [%] | IC50 (P2X4 [2]) [nM] | Emax (P2X4 [2]) [%]
NS(=O)(=O)c1cc(NC(=O)Cc2ccccc2Cl)ccc1Oc1ccc(C2CCC(=O)N2)cc1 (stereo not drawn) [Example 062, 2-(2-Chlorophenyl)-N-{4-[4-(5-oxopyrrolidin-2-yl)phenoxy]-3-sulfamoylphenyl}acetamide] | 560 | 95 | 455 | 70
NS(=O)(=O)c1cc(NC(=O)Cc2ccccc2Cl)ccc1Oc1ccccc1Cl [Example 065, N-[4-(2-Chlorophenoxy)-3-sulfamoylphenyl]-2-(2-chlorophenyl)acetamide] |  | 81 |  | 70
NS(=O)(=O)c1cc(NC(=O)Cc2ccccc2Cl)ccc1Oc1ccc(Cl)cc1 [Example 066, N-[4-(4-Chlorophenoxy)-3-sulfamoylphenyl]-2-(2-chlorophenyl)acetamide] | > 25000 | 51 | 129 | 46
NS(=O)(=O)c1cc(NC(=O)Cc2ccccc2)ccc1Oc1ccc(Cl)cc1 [Example 077, N-[4-(4-Chlorophenoxy)-3-sulfamoylphenyl]-2-phenylacetamide] | 8340 | 54 | 201 | 53
NS(=O)(=O)c1cc(NC(=O)Cc2ccccc2Cl)ccc1Oc1cnc(Cl)nc1 [Example 079] |  | 54 |  | 40
NS(=O)(=O)c1cc(NC(=O)Cc2ccccc2Cl)c(Cl)cc1Oc1cccc(Cl)c1 [Example 082, N-[2-chloro-4-(3-chlorophenoxy)-5-sulfamoylphenyl]-2-(2-chlorophenyl)acetamide] | > 25000 | 31 | > 50000 | 33
NS(=O)(=O)c1cc(NC(=O)Cc2cccc(F)c2Cl)c(Cl)cc1Oc1cccc(Cl)c1 [Example 083, N-[2-chloro-4-(3-chlorophenoxy)-5-sulfamoylphenyl]-2-(2-chloro-3-fluorophenyl)acetamide] | > 25000 | 39 |  | 35
NS(=O)(=O)c1cc(NC(=O)Cc2ccc(F)cc2)ccc1Oc1cccc(Cl)c1 [Example 085, N-[4-(3-Chlorophenoxy)-3-sulfamoylphenyl]-2-(4-fluorophenyl)acetamide] |  | 86 |  | 59
Cc1ccc(CC(=O)Nc2ccc(Oc3cccc(Cl)c3)c(S(N)(=O)=O)c2)c(Cl)c1 [Example 095, 2-(2-Chloro-4-methylphenyl)-N-[4-(3-chlorophenoxy)-3-sulfamoylphenyl]acetamide] | 137 | 64 | 99 | 63
NS(=O)(=O)c1cc(NC(=O)Cc2cccc(Cl)c2Cl)ccc1Oc1cccc(Cl)c1 [Example 103, N-[4-(3-Chlorophenoxy)-3-sulfamoylphenyl]-2-(2,3-dichlorophenyl)acetamide] | 208 | 78 | 141 | 70
NS(=O)(=O)c1cc(NC(=O)Cc2cccc(C(F)(F)F)c2Cl)ccc1Oc1cccc(Cl)c1 [Example 107, N-[4-(3-Chlorophenoxy)-3-sulfamoylphenyl]-2-[2-chloro-3-(trifluoromethyl)phenyl]acetamide] | 201 | 86 | 901 | 64
NS(=O)(=O)c1cc(NC(=O)Cc2ccc(Cl)cc2Cl)ccc1Oc1cccc(Cl)c1 [Example 110, N-[4-(3-Chlorophenoxy)-3-sulfamoylphenyl]-2-(2,4-dichlorophenyl)acetamide] | 254 | 79 | 159 | 37
NS(=O)(=O)c1cc(NC(=O)Cc2ccccc2OC(F)F)ccc1Oc1cccc(Cl)c1 [Example 113, N-[4-(3-Chlorophenoxy)-3-sulfamoylphenyl]-2-[2-(difluoromethoxy)phenyl]acetamide] | 173 | 88 | 239 | 73
NS(=O)(=O)c1cc(NC(=O)Cc2ccc(C(F)(F)F)cc2)ccc1Oc1cccc(Cl)c1 [Example 116, N-[4-(3-Chlorophenoxy)-3-sulfamoylphenyl]-2-[4-(trifluoromethyl)phenyl]acetamide] |  | 87 |  | 72
Cc1ccc(Cl)c(CC(=O)Nc2ccc(Oc3cccc(Cl)c3)c(S(N)(=O)=O)c2)c1Cl [Example 128, N-[4-(3-Chlorophenoxy)-3-sulfamoylphenyl]-2-(2,6-dichloro-3-methylphenyl)acetamide] | 184 | 77 | 380 | 60

Further lines, results first:

IC50 (P2X4 [1]) [nM] | Emax (P2X4 [1]) [%] | IC50 (P2X4 [2]) [nM] | Emax (P2X4 [2]) [%] | Structure (SMILES)
90 | 82 | 221 | 70 | NS(=O)(=O)c1cc(NC(=O)Cc2ccccc2Cl)ccc1Oc1ccc(N2CCOC2=O)cc1 [Example 063, 2-(2-chlorophenyl)-N-{4-[4-(2-oxo-1,3-oxazolidin-3-yl)phenoxy]-3-sulfamoylphenyl}acetamide]
44 | 65 | 140 | 51 | NS(=O)(=O)c1cc(NC(=O)Cc2ccccc2Cl)ccc1Oc1cncc(F)c1 [Example 080, 2-(2-Chlorophenyl)-N-{4-[(5-fluoropyridin-3-yl)oxy]-3-sulfamoylphenyl}acetamide]
65 | 43 | > 16000 | 36 | NS(=O)(=O)c1cc(NC(=O)Cc2ccccc2Cl)ccc1Oc1ccc(Cl)nc1 [Example 081, 2-(2-Chlorophenyl)-N-{4-[(6-chloropyridin-3-yl)oxy]-3-sulfamoylphenyl}acetamide]
102 | 85 | 145 | 66 | NS(=O)(=O)c1cc(NC(=O)Cc2ccccc2C(F)F)ccc1Oc1cccc(Cl)c1 [Example 089, N-[4-(3-Chlorophenoxy)-3-sulfamoylphenyl]-2-[2-(difluoromethyl)phenyl]acetamide]
27 | 75 | 53 | 58 | NS(=O)(=O)c1cc(NC(=O)Cc2ccccc2Br)ccc1Oc1cccc(Cl)c1 [Example 091, 2-(2-Bromophenyl)-N-[4-(3-chlorophenoxy)-3-sulfamoylphenyl]acetamide]
78 | 72 | 27 | 59 | Cc1cccc(Cl)c1CC(=O)Nc1ccc(Oc2cccc(Cl)c2)c(S(N)(=O)=O)c1 [Example 096, 2-(2-Chloro-6-methylphenyl)-N-[4-(3-chlorophenoxy)-3-sulfamoylphenyl]acetamide]
119 | 84 | 123 | 78 | Cc1ccc(Cl)c(CC(=O)Nc2ccc(Oc3cccc(Cl)c3)c(S(N)(=O)=O)c2)c1 [Example 097, 2-(2-Chloro-5-methylphenyl)-N-[4-(3-chlorophenoxy)-3-sulfamoylphenyl]acetamide]
38 | 97 | 59 | 69 | COc1cccc(Cl)c1CC(=O)Nc1ccc(Oc2cccc(Cl)c2)c(S(N)(=O)=O)c1 [Example 101, 2-(2-Chloro-6-methoxyphenyl)-N-[4-(3-chlorophenoxy)-3-sulfamoylphenyl]acetamide]
68 | 85 | 84 | 61 | COc1ccc(Cl)c(CC(=O)Nc2ccc(Oc3cccc(Cl)c3)c(S(N)(=O)=O)c2)c1 [Example 102, 2-(2-Chloro-5-methoxyphenyl)-N-[4-(3-chlorophenoxy)-3-sulfamoylphenyl]acetamide]
43 | 94 | 468 | 61 | NS(=O)(=O)c1cc(NC(=O)Cc2cc(Br)ccc2Cl)ccc1Oc1cccc(Cl)c1 [Example 117, 2-(5-Bromo-2-chlorophenyl)-N-[4-(3-chlorophenoxy)-3-sulfamoylphenyl]acetamide]
65 | 83 | 194 | 78 | Cc1ccc(F)c(CC(=O)Nc2ccc(Oc3cccc(Cl)c3)c(S(N)(=O)=O)c2)c1Cl [Example 120, 2-(2-Chloro-6-fluoro-3-methylphenyl)-N-[4-(3-chlorophenoxy)-3-sulfamoylphenyl]acetamide]
26 | 83 | 105 | 54 | NS(=O)(=O)c1cc(NC(=O)Cc2c(F)ccc(F)c2Cl)ccc1Oc1cccc(Cl)c1 [Example 122, 2-(2-Chloro-3,6-difluorophenyl)-N-[4-(3-chlorophenoxy)-3-sulfamoylphenyl]acetamide]
